“Also recorded” adds a separate entry of the source.
Tests used:
Assay type in all cases: cell-based
[1] = tested on: APOL1 expression in endothelial cells; test: APOL1 expression in endothelial cells treated with TLR3 agonist poly(I:C) and inhibitors; settings: TLR3 agonist poly(I:C) (FIG. 8-13)
Protocol: Endothelial cells were treated with the TLR3 agonist poly(I:C) and with JAK inhibitors (FIGS. 8A-8D), Bx795(a TBK1/IKKe inhibitor) (FIG. 9), and chloroquine (FIG. 10). […] The TBK1/IKK e complex is used by both TLR and Rig-like receptor signaling mechanisms, and therefore offers a broader target for inhibition of APOL1 expression than either pathway alone. Chloroquine and similar class of compounds may be particularly useful for inhibiting APOL1 expression when that expression is driven by endosomal pattern recognition receptors such as TLR3, TLR7, TLR8, TLR9, and in some cases TLR4. Even though TLR3 expression is described above as an example, these strategies are likely to be effective in blocking APOL1 expression driven by multiple inflammatory stimuli.
Endothelial cells were treated with the TLR3 agonist poly(I:C) and with NF-κB inhibitors (FIG. 11), PKR inhibitors (FIG. 12), and MAP kinase inhibitors (FIG. 13).

[2] = tested on: APOL1 mRNA expression in endothelial cells; test: APOL1 mRNA expression in endothelial cells treated with interferon beta and JAK inhibitors; settings: interferon beta (FIG. 4A-4C)
Source text: JAK inhibitors are in clinical testing for autoimmune disease, transplant immunosuppression, and myelodysplastic syndromes. They are selective, rather than specific, for individual JAK inhibitors. For example, WHI-P131 targets JAK3, INCB018424 (ruxolitinib) targets […] and JAK2, and TG101348 targets JAK2.

[3] = tested on: APOL1 expression in podocytes; test: APOL1 expression in podocytes treated with TLR3 agonist poly(I:C) and inhibitors; settings: podocytes (not shown)
[4] = tested on: APOL1 mRNA expression in endothelial cells; test: APOL1 mRNA expression in endothelial cells after stimulation with interferons, TLR/RIG agonists or bacterial DNA; settings: interferon stimulation (FIG. 3A, 3B)
Source text: HIV is a powerful inducer of APOL1 renal disease in individuals with the renal risk genotype. Other viruses such as parvovirus have been associated with FSGS. […] Cells have extracellular, endosomal, and cytoplasmic viral sensors such as TLRs, Rig-L1, and others. These genes are potential targets for reducing APOL1 expression.

APOL1 expression = test: shRNA knockdown experiments on poly(I:C)-induced APOL1 upregulation; settings: polyI:C versus control, GFP virus control (FIG. 14)
Source text: To validate pharmacologic targets that may regulate pathogenic APOL1 expression, we used shRNA to determine specific genes that mediate the APOL1 upregulation induced by poly(I:C). These experiments allowed us to confirm targets identified above by pharmacologic methods and to identify additional known targets in these same pathways. […] The data shown in FIG. 14 validates several pathways identified by the pharmacological experiments described above and identifies additional pathways that can be targeted to decrease pathogenic APOL1 expression.

Nc1ccc2ncnc(NCCc3ccc(Oc4ccccc4)cc3)c2c1 [6A4Q, 6-amino-4-(4-phenoxyphenylethylamino) quinazoline]
effect on poly(I:C) induced APOL1 upregulation (in words) [1]: could be inhibited

CC(C)(C)c1ccc(S(=O)(=O)/C=C/C#N)cc1 [Bay 11-7085]
effect on poly(I:C) induced APOL1 upregulation (in words) [1]: could be inhibited

O=C(NCCCNc1nc(Nc2cccc(NC(=O)N3CCCC3)c2)ncc1I)c1cccs1 [Bx795]
effect on poly(I:C) induced APOL1 upregulation (in words) [1]: reduced the poly(I:C) induced increased in APOL1 expression

N#CC[C@H](C1CCCC1)n1cc(-c2ncnc3[nH]ccc23)cn1 [INCB018424]
effect on APOL1 upregulation caused by interferon beta (in words) [2]: block the potentially pathologic upregulation of APOL1

C[S+]([O-])c1ccc(-c2nc(-c3ccncc3)c(-c3ccc(F)cc3)[nH]2)cc1 (stereo not shown) [SB203580]
effect on poly(I:C) induced APOL1 upregulation (in words) [1]: inhibited blocked poly(I:C) induced APOL1 upregulation; also recorded: inhibited APOL1 expression

Oc1c2ccccc2c2c3c(cccc13)N=N2 [SP600125]
inhibition of APOL1 expression [3]: 50%

Cc1cnc(Nc2ccc(OCCN3CCCC3)cc2)nc1Nc1cccc(S(=O)(=O)NC(C)(C)C)c1 [TG101348]
effect on APOL1 upregulation caused by interferon beta (in words) [2]: block the potentially pathologic upregulation of APOL1

COc1cc2ncnc(Nc3ccc(O)cc3)c2cc1OC [WHI-P131]
effect on APOL1 upregulation caused by interferon beta (in words) [2]: block the potentially pathologic upregulation of APOL1

CCN(CC)CCCC(C)Nc1ccnc2cc(Cl)ccc12 (stereo not shown) [chloroquine]
effect on poly(I:C) induced APOL1 upregulation (in words) [1]: reduced the poly(I:C) induced increased in APOL1 expression

O=C1Nc2ccc3ncsc3c2/C1=C/c1c[nH]cn1 [imidazolo-oxindole PKR inhibitor]
effect on poly(I:C) induced APOL1 upregulation (in words) [1]: blocks APOL1 upregulation | effect on poly(I:C) induced APOL1 upregulation (in words) ([1]; listed as drawing 4): completely blocked poly(I:C) induced APOL1 upregulation

interferon gamma: type 2 (gamma) interferon
upregulation of APOL1 [4]: up to 200 fold

polyI:C
stimulation of APOL1 expression (in words) (APOL1 expression): strongly stimulates APOL1 expression

Source: patent publication US10940151B2, “Methods for treating renal disease” (Beth Israel Deaconess Medical Center, Inc., priority 2012, dated 2021)
